This is an account of results in patent US10857247B2, “Compounds and compositions for the detection and treatment of Alzheimer's disease and related disorders” (The General Hospital Corporation, priority 2008, dated 2020).

Read-outs that look alike come from different tables or passages of the source.

For series [1] the following is noted: cited from earlier work.
The conditions of series [2]: normal mice, iv, cited from earlier work.
Series [3] relates to brain amyloid deposits. The following applies: APP23 transgenic mice, 180 min after iv injection; cited from earlier work.
Series [4] can be described thus: Biodistribution of [18F]fluoro-RS 86 in rats. In kind it is in vivo. How it is done:
As described above, 2-(2-methanesulfonylethyl)-8-methyl-2,8-diazaspiro[4,5]decane-1,3-dione was prepared in five steps. The RS-86 mesylate (2 mg) in acetonitrile (0.1 mL) was added to a sealed vial containing dried K^18F/kryptofix and heated at 120° C. for 10 min. The mixture was diluted with water (0.2 mL) and purified by HPLC (C-18 column 250×10 mm, flow 6 mL/min, PBS/acetonitrile (95:5). The fraction containing [^18F]fluoro-RS 86 was evaporated to dryness and the activity dissolved in PBS before filtering. Biodistribution was performed in rats at 5, 30 and 60 min.

With `CCN1C(=O)CC2(CCN([11CH3])CC2)C1=O` [[^11C]RS-86], in series [1] (comparison value for the C-11 labeled analog), the Brain uptake is on record as 1%. Further, in series [1] (rats, biodistribution as a function of time), the Initial brain uptake entry was “about 1.1%”.
As for `CNc1ccc(C=Cc2nc3ccc(OCCF)cc3o2)cc1` [BF-168, 6-(2-fluoroethoxy)-2-[2-(4-methylaminophenyl)ethenyl]-benzoxazole], the Initial brain uptake in series [2] (at 2 min after injection) is recorded as 3.9 % injected dose/gm. Also, the “Clearance t1/2” value in series [2] (clearance from brain) was 24.7 min. The “Labeling in autoradiograms of brain sections” value in series [3] is given as “selective labeling of brain amyloid deposits with little non-specific binding”.
The compound `O=C1CC2(CCNCC2)C(=O)N1CC[18F]` [[^18F]fluoro-RS 86, [F-18]-N-2-fluoroethyl-2,8-diazaspiro[4,5]decane-1,3-dione] gave a Brain uptake in series [4] (5 min) of 0.27. In series [4] (30 min), this compound had a Brain uptake of 0.54. The Brain uptake in series [4] (60 min) is recorded as 0.48. In series [4] (at 30 min), the Blood uptake is 0.3%, the Liver uptake is on record as 0.64%, the Stomach uptake was found to be 0.90% and the “Uptake in the kidneys (greatest uptake)” value was 2.5%. In addition, in series [4] (bone at 30 min), the “Defluorination (uptake in bone)” value was determined as 0.42%. Moreover, the Brain uptake in series [4] (restated in comparison with [11C]RS-86) was 0.54%.
